Experimental findings from PMC4841536, “Characterization of the Anti-HCV Activities of the New Cyclophilin Inhibitor STG-175” (PLoS ONE, 2016) are described below.

Read-outs that look alike come from different tables or passages of the source.

Series [1] deals with HCV GT1a subgenomic replicon H77 RLucP. The series is described as follows: Luciferase reporter replicon antiviral assay, GT1a. The series is classed as cell-based. Particulars: Hepatitis C virus. The method, then:
(§1) The anti-HCV activity of STG-175 was conducted using a panel of luciferase reporter replicon cell lines including GT1a, GT1b, GT2a, GT3a and GT4a as we described previously. The GT1a subgenomic renilla luciferase reporter replicon H77 RLucP (7) was supplied by Dr. Delaney. The GT1b subgenomic firefly luciferase reporter replicon pFK-I389/NS3-3’ [29] was supplied by Dr. Bartenschlager. The GT1B subgenomic NS3, NS5A and NS5B mutants were created via homologous recombination using the In-Fusion HD Cloning kit (Clontech) as we described previously. The GT2a genomic luciferase reporter replicon Luc-Neo-JFH-1 was generated as previously. The plasmid pFK-Luc-JFH1 was supplied from Drs. […] The CellTiter-Fluor™ Cell Viability Assay is a non-lytic fluorescence assay, which measures the number of live cells. […] Luciferase activity was determined using the Luciferase Assay System (Promega) in a Berthold luminometer. […] Viable cells continuously convert resazurin to resorufin, increasing the overall fluorescence and color of the media surrounding cells.
(§2) Fig 2 Anti-HCV activities of STG-175 among GTs. […] Luciferase activity was determined using the Luciferase Assay System in a Berthold luminometer. […] Data are expressed as mean of relative light units and calculated EC50s are presented. […]
A general note: Reporter assays use an easily measured gene product as a stand-in for the process of interest.

For series [2], the system named is HCV GT4a subgenomic replicon ED43/SG-Feo. The series can be described thus: Luciferase reporter replicon antiviral assay, GT4a. Particulars: Hepatitis C virus. The series is classed as cell-based. The method, then: as §1, §2
Series [3] can be described thus: alamarBlue cytotoxicity (CC50), GT1b replicon cell line. Particulars: human. The method, then: as §1, §2
The nature of series [4]: alamarBlue cytotoxicity (CC50), GT2a replicon cell line. Particulars: human. The method, then:
as §1, §2
On the technique in general: The colour change of resazurin is a common sign of viable cells or microbes.

In a further series the test system is GT2a replicon cell line. The series is described as above. Particulars: GT2a replicon cell line. On the procedure:
as §1, §2

The test system of series [5] is NS5Ai-resistant L31V NS5A Con1 GT1b replicon. The series can be described thus: Electroporated Con1 RNA replication in Huh7.5.1 cells (RT-qPCR), L31V NS5A. The series is classed as cell-based. Particulars: Hepatitis C virus, Huh-7.5.1, 192 h, read-out: EC50 L31V NS5A. An excerpt: The GT1b subgenomic firefly luciferase reporter replicon pFK-I389/NS3–3 was provided by R. Bartenschlager. The GT1B subgenomic NS3, NS5A and NS5B mutants were created via homologous recombination using the In-Fusion HD Cloning kit (Clontech) as we described previously. […] The in vitro transcription of wild-type and mutant Con1 RNA was accomplished using the T7 MEGAscript kit (Ambion) by following the manufacturer’s instructions. In vitro-transcribed RNAs were introduced into Huh7.5.1 cells by electroporation. Trypsinized cells were washed twice and resuspended in phosphate-buffered saline (PBS) (calcium-free and magnesium-free) at 1x 10^7 cells per ml. Ten micrograms of RNA for each mutant was mixed with 0.4 mL of cells in a 4-mm cuvette, and a Bio-Rad Gene Pulser system was used to deliver a single pulse at 0.27 kV, 100 ohms, and 960 μF. […] RNA transfection efficiency and HCV subgenomic replication were assessed by reverse transcription-quantitative PCR (RT-qPCR) and presented as genome equivalents (GE) per microgram of total RNA as described previously. We measured by RT-qPCR the replication of wild-type, STG-175-, NS5Ai-, NS3i- and NS5Bi-resistant mutants in the presence of increasing concentrations of SGT-175, daclatasvir, telaprevir, boceprevir and sofosbuvir over a period of 8 days.
Fig 5 Cross-resistance analyses. […] Data are expressed as log of GE/μg of total RNA. […]
A general note: Real-time PCR tracks product formation cycle by cycle.

As to `CC=CCC(C)C(O)C1C(=O)NC(CC)C(=O)N(C)C(CSCCCCO)C(=O)N(C)C(CC(C)(C)O)C(=O)NC(C(C)C)C(=O)N(C)C(CC(C)C)C(=O)NC(C)C(=O)NC(C)C(=O)N(C)C(CC(C)C)C(=O)N(C)C(CC(C)C)C(=O)N(C)C(C(C)C)C(=O)N1C` (centres unmarked) [STG-175], the EC50 (commonly the concentration giving half of the maximal effect) in series [1] (72 h post-drug addition, luciferase, read-out: EC50 GT1a) turned out to be 13.5 nM; in series [1] (Fig 2D table, unit inferred, read-out: EC50 GT1a (Fig 2D)), 13.5 nM; in series [2] (72 h, read-out: EC50 GT4a) it was 15.2 nM; in series [2] (read-out: EC50 GT4a (Fig 2D)), 15.2 nM; in series [5], 15.1 nM. The CC50 at 72 h in series [3] and in series [4] was above 10000 nM in each case. Moreover, the “cell viability toward increasing doses (alamarBlue)” value in the series with GT2a replicon cell line was “lack of cellular cytotoxicity”.
